From PubChem BioAssay (NCI) come the findings set out here.

Some test systems named below: 786-0 renal; COLO 205 colon; HOP-62 NSCLC; MDA-MB-231 breast; MOLT-4 leukemia; NCI-H226 lung; NCI-H460 lung; SK-OV-3 ovarian; UACC-257 melanoma; UACC-62 melanoma.
Holding throughout (test): NCI-60 cell line screen, 48 h

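Five compound concentrations were applied to cells in 96-well plates for 48 hours; endpoints were derived by simple linear interpolation of the resulting dose-response curve. Here, GI50 denotes the concentration required for 50% inhibition of growth. The concentration for full growth arrest is given as TGI.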

As for `COc1cc2oc3cc(=O)cc4oc(-c5ccccc5)cc(c2c2c1CCC(c1ccccc1)O2)c43` (stereo not given), the TGI is greater than 100 µM with 786-0 renal; 46.1 µM in the assay with COLO 205 colon; greater than 100 µM in the assay on HOP-62 NSCLC; 68.1 µM in the assay with MDA-MB-231 breast; greater than 100 µM in the assay with MOLT-4 leukemia; greater than 100 µM with NCI-H226 lung. In addition, the TGI in the assay on NCI-H460 lung is greater than 100 µM; with SK-OV-3 ovarian it was greater than 100 µM; with UACC-257 melanoma, 69 µM; in the assay on UACC-62 melanoma it was greater than 100 µM.
Regarding `c1cc2n(n1)CCN2`, the TGI with 786-0 renal is greater than 7100 µM; with COLO 205 colon, greater than 10000 µM; with HOP-62 NSCLC, greater than 9550 µM; with MDA-MB-231 breast, greater than 10000 µM; in the assay on MOLT-4 leukemia it was 9880 µM; in the assay with NCI-H226 lung, greater than 9350 µM. Moreover, the TGI in the assay on NCI-H460 lung was 6710 µM; with SK-OV-3 ovarian, greater than 7350 µM; in the assay with UACC-257 melanoma, greater than 10000 µM; in the assay with UACC-62 melanoma it was 6540 µM.
Regarding `COc1c(O)cc2oc(-c3ccc(O)cc3)cc(=O)c2c1O`, the TGI is greater than 100 µM with 786-0 renal; greater than 100 µM in the assay with COLO 205 colon; greater than 100 µM with HOP-62 NSCLC; greater than 100 µM in the assay on MDA-MB-231 breast; 83.2 µM in the assay on MOLT-4 leukemia; greater than 100 µM with NCI-H226 lung. Further, the TGI in the assay on NCI-H460 lung was greater than 100 µM; with SK-OV-3 ovarian it was greater than 100 µM; in the assay with UACC-257 melanoma, greater than 100 µM; in the assay with UACC-62 melanoma it was 68.1 µM.
Regarding `COc1cc(Nc2c(C#N)cnc3cc(OCCCN4CCN(C)CC4)c(OC)cc23)c(Cl)cc1Cl`, the GI50 is 2.09 µM in the assay with 786-0 renal; 1.6 µM in the assay with COLO 205 colon; 4.69 µM in the assay with HOP-62 NSCLC; 2.76 µM in the assay on MDA-MB-231 breast; 1.91 µM in the assay on MOLT-4 leukemia; 12.1 µM in the assay on NCI-H226 lung. For the same compound, the GI50 in the assay on NCI-H460 lung was 3.99 µM; in the assay with SK-OV-3 ovarian it was 0.884 µM; in the assay on UACC-257 melanoma, 1.76 µM; in the assay on UACC-62 melanoma, 2.48 µM. Also, the TGI in the assay on 786-0 renal stood at 9.93 µM; in the assay with COLO 205 colon, 3.03 µM; in the assay on HOP-62 NSCLC it was 17.6 µM; in the assay with MDA-MB-231 breast, 7.14 µM; with MOLT-4 leukemia it was 7.38 µM; in the assay with NCI-H226 lung, 34.5 µM. Moreover, the TGI in the assay on NCI-H460 lung worked out at 17.7 µM; with SK-OV-3 ovarian, 12.3 µM; in the assay with UACC-257 melanoma, 3.46 µM; in the assay with UACC-62 melanoma, 7.01 µM.
Turning to `C=C1/C(=C\C=C2/CCC[C@]3(C)[C@@H]([C@H](C)CCCC(C)(C)O)CC[C@@H]23)C[C@@H](OC(=O)CBr)C[C@@H]1O`, the GI50 was 0.642 µM in the assay on 786-0 renal; 2.58 µM in the assay on COLO 205 colon; 12.9 µM in the assay with HOP-62 NSCLC; 1.39 µM in the assay on MDA-MB-231 breast; 0.371 µM in the assay with MOLT-4 leukemia; 3.74 µM with NCI-H226 lung. For the same compound, the GI50 was 12 µM with NCI-H460 lung, 14.9 µM with SK-OV-3 ovarian, 9.84 µM with UACC-257 melanoma and 3.29 µM in the assay on UACC-62 melanoma. Besides, the TGI in the assay on 786-0 renal was found to be 1.89 µM; with COLO 205 colon, 19.6 µM; with HOP-62 NSCLC, 30.5 µM; in the assay on MDA-MB-231 breast, 5.4 µM; with MOLT-4 leukemia it was 2.05 µM; in the assay on NCI-H226 lung, 22.1 µM. Besides, the TGI is 28 µM in the assay on NCI-H460 lung, 29.5 µM in the assay with SK-OV-3 ovarian, 26.8 µM with UACC-257 melanoma and 9.84 µM with UACC-62 melanoma.
For the compound `CNCCCn1c2c(c3ccc([N+](=O)[O-])cc3c1=O)C(=O)c1cc(OC)cnc1-2`, the GI50 in the assay with 786-0 renal was 0.0362 µM; in the assay with COLO 205 colon, 0.0569 µM; in the assay with HOP-62 NSCLC it was 0.03 µM; in the assay with MDA-MB-231 breast, 0.265 µM; with MOLT-4 leukemia it was 0.0306 µM; in the assay on NCI-H226 lung, 0.0946 µM. For the same compound, the GI50 in the assay with NCI-H460 lung is 0.0194 µM; in the assay with SK-OV-3 ovarian, 0.0568 µM; in the assay with UACC-257 melanoma, 0.175 µM; with UACC-62 melanoma, 0.02 µM. Also, the TGI stood at 0.189 µM with 786-0 renal; 0.636 µM in the assay on COLO 205 colon; 0.139 µM in the assay with HOP-62 NSCLC; 1.72 µM in the assay on MDA-MB-231 breast; 0.293 µM with MOLT-4 leukemia; 0.245 µM with NCI-H226 lung. For the same compound, the TGI in the assay on NCI-H460 lung came out at 0.185 µM; with SK-OV-3 ovarian it was 0.351 µM; with UACC-257 melanoma, 0.953 µM; with UACC-62 melanoma, 0.122 µM.
In the case of `Cc1ccc(C(CC(=O)c2ccccc2)C2C(=O)NC(=O)NC2=O)cc1` (stereo not given), the GI50 in the assay on 786-0 renal, in the assay on COLO 205 colon, in the assay with HOP-62 NSCLC, with MDA-MB-231 breast, with MOLT-4 leukemia and in the assay with NCI-H226 lung was greater than 100 µM in each case. Further, the GI50 with NCI-H460 lung, in the assay on SK-OV-3 ovarian, in the assay on UACC-257 melanoma and with UACC-62 melanoma was greater than 100 µM throughout. Besides, the TGI in the assay on 786-0 renal, in the assay on COLO 205 colon, in the assay on HOP-62 NSCLC, in the assay with MDA-MB-231 breast, in the assay with MOLT-4 leukemia and in the assay with NCI-H226 lung was greater than 100 µM each time. For the same compound, the TGI in the assay on NCI-H460 lung, with SK-OV-3 ovarian, in the assay with UACC-257 melanoma and in the assay with UACC-62 melanoma was greater than 100 µM throughout.
For the compound `Cc1cc(NCCN(C(C)C)C(C)C)nc(/N=C(\N)Nc2ccc(Cl)c(C(F)(F)F)c2)n1`, the GI50 was 0.736 µM in the assay on 786-0 renal; 0.164 µM in the assay with COLO 205 colon; 0.748 µM in the assay on HOP-62 NSCLC; 0.292 µM in the assay with MDA-MB-231 breast; 0.383 µM in the assay on MOLT-4 leukemia; 1.96 µM in the assay on NCI-H226 lung. The GI50 in the assay with NCI-H460 lung was 0.463 µM; in the assay on SK-OV-3 ovarian, 1.26 µM; in the assay with UACC-257 melanoma, 0.187 µM; with UACC-62 melanoma, 0.198 µM. The TGI was determined as 2.06 µM in the assay with 786-0 renal; 0.305 µM with COLO 205 colon; 2 µM in the assay on HOP-62 NSCLC; 1.04 µM in the assay with MDA-MB-231 breast; 1.47 µM in the assay on MOLT-4 leukemia; 4.15 µM in the assay on NCI-H226 lung. For the same compound, the TGI with NCI-H460 lung is 1.62 µM; in the assay on SK-OV-3 ovarian it was 2.55 µM; in the assay on UACC-257 melanoma it was 0.337 µM; in the assay on UACC-62 melanoma it was 0.417 µM.
